The source of these data is patent EP4458830A1, “TRICYCLIC COMPOUND, METHOD FOR PREPARING SAME, AND USE THEREOF” (Sichuan Kelun-Biotech Biopharmaceutical Co., Ltd., priority 2021, dated 2023).

The term EC50 denotes the midpoint of the concentration-response curve. Low readings indicate a more potent agent, high ones a less potent agent.

One experiment has as its target T1, human TLR7 (Homo sapiens, UniProt Q9NYK1).
T1 construct: host or cells: HEK-Blue hTLR7 cells (HEK293-derived reporter line; that the line is stably transfected with the human TLR7 gene is own knowledge of the vendor's product)
T1 sequence (Q9NYK1 27-1049): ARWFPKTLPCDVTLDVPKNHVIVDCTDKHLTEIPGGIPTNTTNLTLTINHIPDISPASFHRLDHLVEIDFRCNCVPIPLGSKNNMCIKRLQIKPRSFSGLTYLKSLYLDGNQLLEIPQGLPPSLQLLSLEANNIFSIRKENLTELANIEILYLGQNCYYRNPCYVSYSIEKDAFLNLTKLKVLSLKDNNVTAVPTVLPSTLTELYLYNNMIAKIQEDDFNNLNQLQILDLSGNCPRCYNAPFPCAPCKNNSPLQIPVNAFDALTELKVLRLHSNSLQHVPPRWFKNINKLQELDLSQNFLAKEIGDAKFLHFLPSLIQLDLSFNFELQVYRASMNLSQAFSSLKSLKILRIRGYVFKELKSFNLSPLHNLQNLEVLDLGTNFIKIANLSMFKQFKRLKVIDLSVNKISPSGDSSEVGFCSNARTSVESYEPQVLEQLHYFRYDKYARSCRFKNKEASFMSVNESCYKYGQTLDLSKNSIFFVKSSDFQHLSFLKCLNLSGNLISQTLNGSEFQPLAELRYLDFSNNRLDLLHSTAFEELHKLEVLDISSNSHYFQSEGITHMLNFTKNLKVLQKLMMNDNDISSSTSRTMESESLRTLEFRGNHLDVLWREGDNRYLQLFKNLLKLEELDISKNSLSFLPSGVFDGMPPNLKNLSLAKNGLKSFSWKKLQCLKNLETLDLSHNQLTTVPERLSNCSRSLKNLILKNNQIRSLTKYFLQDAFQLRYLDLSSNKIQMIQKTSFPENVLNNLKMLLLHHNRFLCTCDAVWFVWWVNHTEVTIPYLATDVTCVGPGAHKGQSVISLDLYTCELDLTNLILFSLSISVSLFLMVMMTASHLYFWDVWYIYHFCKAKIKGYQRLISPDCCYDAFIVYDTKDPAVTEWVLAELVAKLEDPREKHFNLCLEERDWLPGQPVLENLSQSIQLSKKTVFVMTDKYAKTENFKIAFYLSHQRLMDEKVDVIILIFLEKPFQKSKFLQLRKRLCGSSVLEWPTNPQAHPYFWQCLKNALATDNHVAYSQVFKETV
Description: Agonistic activity of compounds on HEK-Blue hTLR7 cells (QUANTI-Blue reporter, OD620). It is filed as cell-based. As to conditions: for EC50 / Emax: HEK-Blue hTLR7 cells; for EC50: 20 h incubation; for Emax: OD620 at which the activation effect reached the maximum; for activation effect on human TLR7: summary in words. The procedure: • 1. HEK-Blue hTLR7 cells (Invivogen) were cultured in DMEM medium (Hyclone) containing 10% FBS heat-inactivated fetal bovine serum (Corning). On the day of detection, the cell state was observed under a microscope, the cells were collected and resuspended, and the cell concentration was adjusted after counting, 50 µL per well, the total amount of cells was 2×10^4, and the cells were inoculated in a 96-well plate. • 2. After the cells adhered to the wall overnight, 50 µL of the test compound at different concentrations was added into the well plate, so that the final concentrations were 100 µM, 33.3 µM, 11.11 µM, 3.70 µM, 1.23 µM, 0.41 µM, 0.14 µM, 0.05 µM, 0 µM, and the final concentration of DMSO was 1%. The compound was incubated with the cells in a 37°C, 5% CO2 incubator for 20 h. • 3. After the incubation, observation under microscope was performed to determine the maximum signal well, the states of the cells with the highest and lowest concentrations of the compound, and whether the compound will crystalize at high concentration. 10 µL of cell culture supernatant was taken and transferred to a new 96-well transparent plate, 90 µL of QUANTI-Blue (Invivogen) detection reagent was added to each well, and incubated at 37°C for 3 h, and OD620 was read with a multifunctional microplate reader (BMG LABTECH). • 4. EC50 was calculated by fitting with Graphpad Prism software log(agonist) vs. response - Variable slope, and Emax was the OD620 at which the activation effect of the test compound reached the maximum.

In a further experiment the target is T2, human TLR8 (Homo sapiens, UniProt Q9NR97).
T2 construct: host or cells: HEK-Blue hTLR8 cells (HEK293-derived reporter line; that the line is stably transfected with the human TLR8 gene is own knowledge of the vendor's product)
T2 sequence (Q9NR97 27-1041): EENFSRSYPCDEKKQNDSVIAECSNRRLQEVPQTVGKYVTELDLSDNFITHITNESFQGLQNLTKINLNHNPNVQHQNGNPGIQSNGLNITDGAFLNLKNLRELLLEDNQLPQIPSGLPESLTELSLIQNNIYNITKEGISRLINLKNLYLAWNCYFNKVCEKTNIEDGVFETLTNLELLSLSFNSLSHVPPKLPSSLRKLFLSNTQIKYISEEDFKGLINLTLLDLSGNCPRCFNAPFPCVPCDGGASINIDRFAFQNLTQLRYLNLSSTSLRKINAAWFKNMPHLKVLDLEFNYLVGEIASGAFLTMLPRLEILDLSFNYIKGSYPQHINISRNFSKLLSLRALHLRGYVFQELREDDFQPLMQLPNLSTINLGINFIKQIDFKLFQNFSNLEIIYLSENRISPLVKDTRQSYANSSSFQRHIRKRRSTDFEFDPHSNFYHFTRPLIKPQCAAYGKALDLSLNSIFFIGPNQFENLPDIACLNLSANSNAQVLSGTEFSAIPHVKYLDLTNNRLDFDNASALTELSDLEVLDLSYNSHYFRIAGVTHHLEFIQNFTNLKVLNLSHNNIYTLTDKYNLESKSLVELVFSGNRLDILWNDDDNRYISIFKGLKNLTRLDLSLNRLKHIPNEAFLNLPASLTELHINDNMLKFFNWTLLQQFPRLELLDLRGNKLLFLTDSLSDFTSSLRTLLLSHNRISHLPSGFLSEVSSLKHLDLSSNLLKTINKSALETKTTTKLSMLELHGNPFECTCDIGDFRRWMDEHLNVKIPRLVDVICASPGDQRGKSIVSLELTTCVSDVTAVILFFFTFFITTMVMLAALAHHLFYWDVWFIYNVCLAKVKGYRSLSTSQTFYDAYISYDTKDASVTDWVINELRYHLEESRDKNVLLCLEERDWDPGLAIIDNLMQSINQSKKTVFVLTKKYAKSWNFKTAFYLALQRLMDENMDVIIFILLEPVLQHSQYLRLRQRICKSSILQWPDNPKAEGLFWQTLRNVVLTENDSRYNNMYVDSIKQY
As to the kind of experiment: Agonistic activity of compounds on HEK-Blue hTLR8 cells (QUANTI-Blue reporter, OD620). It is filed as cell-based. The following applies: for EC50 / Emax: HEK-Blue hTLR8 cells; for EC50: 20 hours incubation; for Emax: OD620 at which the activation effect reached the maximum; for activation effect on human TLR8: summary in words. The procedure:
• 1. HEK-Blue hTLR8 cells (Invivogen) were cultured in DMEM medium (Hyclone) containing 10% FBS heat-inactivated fetal bovine serum (Corning). On the day of detection, the cell state was observed under a microscope, the cells were collected and resuspended, and the cell concentration was adjusted after counting, 50 µL per well, the total amount of cells was 2×10^4, and the cells were inoculated in a 96-well plate. • 2. After the cells adhered to the wall overnight, 50 µL of the test compound at different concentrations was added to the well plate, so that the final concentrations were 100 µM, 25 µM, 6.25 µM, 1.56 µM, 0.39 µM, 0.10 µM, 0.02 µM, 0.006 µM, 0 µM, or 100 µM, 33.3 µM, 11.11 µM, 3.70 µM, 1.23 µM, 0.41 µM, 0.14 µM, 0.05 µM, 0 µM, and the final concentration of DMSO was 1%. The compound was incubated with the cells in a 37°C, 5% CO2 incubator for 20 hours. • 3. After the incubation, observation was performed under microscope to determine the maximum signal well, the state of the cells with the highest and lowest concentrations of the compound, and whether the compound will crystalize at high concentration. 10 µL of cell culture supernatant was transferred to a new 96-well transparent plate, added with 90 µL of QUANTI-Blue (Invivogen) detection reagent to each well, incubated at 37°C for 3 hours, and OD620 was read with a multifunctional microplate reader (BMG LABTECH). • 4. EC50 was calculated by fitting with Graphpad Prism software log(agonist) vs. Response - Variable slope, and Emax was the OD620 at which the activation effect of the test compound reached the maximum.

Regarding `CCCCc1nc2c(N)nc3cc(C)sc3c2n1CCCCN` [Compound 1, 1-(4-aminobutyl)-2-butyl-7-methyl-1H-imidazo[4,5-d]thieno[3,2-b]pyridine-4-amine], on human TLR7, it took 0.22 µM to reach a half-maximal effect (EC50), the Emax is given as 1.36 OD620 and the “activation effect on human TLR7” value is listed as “strong activation effect”. Moreover, at human TLR8, a half-maximal response (EC50) required 5.83 µM, the Emax was 1.43 OD620 and the “activation effect on human TLR8” value is given as “strong activation effect”.
In the case of `CCCCc1nc2c(N)nc3ccsc3c2n1CCCCN` [Compound 2, 1-(4-aminobutyl)-2-butyl-1H-imidazo[4,5-d]thieno[3,2-b]pyridine-4-amine], at human TLR7, the half-maximal effective concentration (EC50) was found to be 0.28 µM, the Emax turned out to be 1.36 OD620 and the “activation effect on human TLR7” value is listed as “strong activation effect”. Besides, on human TLR8, the EC50 came to 8.83 µM, the Emax was 1.37 OD620 and the “activation effect on human TLR8” value is “strong activation effect”.
In the case of `CCCCc1nc2c(N)nc3cc(C)sc3c2n1CC1CCNCC1` [Compound 3, 2-butyl-7-methyl-1-(piperidin-4-ylmethyl)-1H-imidazo[4,5-d]thieno[3,2-b]pyridine-4-amine], at human TLR7, the 50% effective concentration (EC50) worked out at 0.47 µM, the Emax is 1.43 OD620 and the “activation effect on human TLR7” value is “strong activation effect”. In addition, at human TLR8, a half-maximal effect (EC50) was put at 19.4 µM, the Emax amounted to 1.86 OD620 and the “activation effect on human TLR8” value is reported as “strong activation effect”.
`CCCCc1nc2c(N)nc3cc(C4CCN(C)CC4)sc3c2[nH]1` [Compound 6, 2-butyl-7-(1-methylpiperidin-4-yl)-1H-imidazo[4,5-d] thieno[3,2-b]pyridine-4-amine]: on human TLR7, the EC50 amounted to 0.44 µM, the Emax was found to be 1.08 OD620 and the “activation effect on human TLR7” value is on record as “strong activation effect”. For the same compound, at human TLR8, the concentration giving a half-maximal response (EC50) was found to be 15.3 µM, the Emax is 1.11 OD620 and the “activation effect on human TLR8” value is on record as “strong activation effect”.
On to `CCCCc1nc2c(N)nc3ccsc3c2n1CC1CCN(C)CC1` [Compound 27, 2-butyl-1-[(1-methylhexahydropyridin-4-yl)methyl] thieno[3,2-b]imidazo[4,5-d]pyridine-4-amine], for which, at human TLR7, the concentration giving a half-maximal response (EC50) amounted to 0.27 µM, the Emax is listed as 1.59 OD620 and the “activation effect on human TLR7” value is reported as “strong activation effect”. Further, at human TLR8, the EC50 is 11.9 µM, the Emax came to 0.84 OD620 and the “activation effect on human TLR8” value is reported as “strong activation effect”.
On to `CCCCc1nc2c(N)nc3cc(C4CCNCC4)sc3c2n1CC1CCOCC1` [Compound 33, 2-butyl-7-(hexahydropyridin-4-yl)-1-(3,4,5,6-tetrahydro-2H-pyran-4-ylmethyl)thieno[3,2-b]imidazo[4,5-d]pyridine-4-amine], for which, on human TLR7, the EC50 worked out at 0.03 µM, the Emax is 1.46 OD620 and the “activation effect on human TLR7” value is recorded as “strong activation effect”. At human TLR8, the concentration giving a half-maximal response (EC50) worked out at 18.9 µM, the Emax came to 0.67 OD620 and the “activation effect on human TLR8” value is given as “strong activation effect”.
